Laboratory results: patent US12077503B2, “Substituted cyclic amides and their use as herbicides” (FMC CORPORATION, priority 2015, dated 2024)

What was measured:
Type in all cases: in vivo
[1] = tested on: ragweed (common ragweed, Ambrosia elatior); experiment: Test A preemergence; settings: Ambrosia artemisiifolia, pre-emergence, 240 h, Preemergence; for pest or weed control at 31 g/ha: 31 g ai/ha, 0 to 100 scale where 0 is no effect and 100 is complete control, read-out: Ragweed plant response rating; for pest or weed control at 125 g/ha: 125 g ai/ha, 0 to 100 scale (0 no effect, 100 complete control), read-out: Plant response rating, Ragweed
Summary of the method: (§1)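 Ratings of 0 (no effect) to 100 (complete control) come from visual comparison with untreated controls roughly 10 d after treatment. Test chemicals, formulated in a non-phytotoxic solvent mixture with surfactant, were applied either as a preemergence directed soil spray on seeded soil or postemergence to one- to two-leaf plants 2 to 10 cm tall.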

[2] = tested on: barnyardgrass (Echinochloa crus-galli); experiment: Test A preemergence; settings: Echinochloa crus-galli, pre-emergence, 240 h, Preemergence; for pest or weed control at 31 g/ha: 31 g ai/ha, 0 to 100 scale where 0 is no effect and 100 is complete control, read-out: Barnyardgrass plant response rating; for pest or weed control at 125 g/ha: 125 g ai/ha, 0 to 100 scale (0 no effect, 100 complete control), read-out: Plant response rating, Barnyardgrass
Summary of the method: as §1

[3] = tested on: pigweed (Amaranthus retroflexus); experiment: Test A preemergence; settings: Amaranthus retroflexus, pre-emergence, 240 h, Preemergence; for pest or weed control at 31 g/ha: 31 g ai/ha, 0 to 100 scale where 0 is no effect and 100 is complete control, read-out: Pigweed plant response rating; for pest or weed control at 125 g/ha: 125 g ai/ha, 0 to 100 scale (0 no effect, 100 complete control), read-out: Plant response rating, Pigweed
Kochia (Kochia scoparia) [4] = experiment: Test A preemergence; settings: Bassia scoparia, pre-emergence, 240 h, Preemergence; for pest or weed control at 31 g/ha: 31 g ai/ha, 0 to 100 scale where 0 is no effect and 100 is complete control, read-out: Kochia plant response rating; for pest or weed control at 125 g/ha: 125 g ai/ha, 0 to 100 scale (0 no effect, 100 complete control), read-out: Plant response rating, Kochia
Summary of the method: as §1

[5] = tested on: ryegrass, Italian (Italian ryegrass, Lolium multiflorum); experiment: Test A preemergence; settings: Lolium multiflorum, pre-emergence, 240 h, Preemergence; for pest or weed control at 31 g/ha: 31 g ai/ha, 0 to 100 scale where 0 is no effect and 100 is complete control, read-out: Ryegrass, Italian plant response rating; for pest or weed control at 125 g/ha: 125 g ai/ha, 0 to 100 scale (0 no effect, 100 complete control), read-out: Plant response rating, Ryegrass, Italian
Summary of the method: as §1

[6] = tested on: ragweed (common ragweed, Ambrosia elatior); experiment: Test A postemergence; settings: Ambrosia artemisiifolia, post-emergence, 240 h, Postemergence, read-out: Ragweed plant response rating (0 to 100 scale); for pest or weed control at 125 g/ha: 125 g ai/ha, visual rating about 10 d after treatment; for pest or weed control at 31 g/ha: 31 g ai/ha, 0 is no effect, 100 is complete control
Summary of the method: as §1

[7] = tested on: barnyardgrass (Echinochloa crus-galli); experiment: Test A postemergence; settings: Echinochloa crus-galli, post-emergence, 240 h, Postemergence; for pest or weed control at 125 g/ha: 125 g ai/ha, visual rating about 10 d after treatment, read-out: Barnyardgrass plant response rating (0 to 100 scale, 0 no effect, 100 complete control); for pest or weed control at 31 g/ha: 31 g ai/ha, 0 is no effect, 100 is complete control, read-out: Barnyardgrass plant response rating (0 to 100 scale)
Summary of the method: as §1

[8] = tested on: pigweed (Amaranthus retroflexus); experiment: Test A postemergence; settings: Amaranthus retroflexus, post-emergence, 240 h, Postemergence, read-out: Pigweed plant response rating (0 to 100 scale); for pest or weed control at 125 g/ha: 125 g ai/ha, visual rating about 10 d after treatment; for pest or weed control at 31 g/ha: 31 g ai/ha, 0 is no effect, 100 is complete control
Summary of the method: as §1

[9] = tested on: blackgrass (Alopecurus myosuroides); experiment: Test A postemergence; settings: Alopecurus myosuroides, post-emergence, 240 h, Postemergence, read-out: Blackgrass plant response rating (0 to 100 scale); for pest or weed control at 125 g/ha: 125 g ai/ha, visual rating about 10 d after treatment; for pest or weed control at 31 g/ha: 31 g ai/ha, 0 is no effect, 100 is complete control
Summary of the method: as §1

Kochia (Kochia scoparia) [10] = experiment: Test A postemergence; settings: Bassia scoparia, post-emergence, 240 h, Postemergence, read-out: Kochia plant response rating (0 to 100 scale); for pest or weed control at 125 g/ha: 125 g ai/ha, visual rating about 10 d after treatment; for pest or weed control at 31 g/ha: 31 g ai/ha, 0 is no effect, 100 is complete control
Summary of the method: as §1

[11] = tested on: giant foxtail (Setaria faberii); experiment: Test A postemergence; settings: Setaria faberi, post-emergence, 240 h, Postemergence, read-out: Foxtail, Giant plant response rating (0 to 100 scale); for pest or weed control at 125 g/ha: 125 g ai/ha, visual rating about 10 d after treatment; for pest or weed control at 31 g/ha: 31 g ai/ha, 0 is no effect, 100 is complete control
Summary of the method: as §1

[12] = tested on: wheat (Triticum aestivum); experiment: Test A postemergence; settings: Triticum aestivum, post-emergence, 240 h, Postemergence, read-out: Wheat plant response rating (0 to 100 scale); for plant injury at 125 g/ha: 125 g ai/ha, visual rating about 10 d after treatment; for plant injury at 31 g/ha: 31 g ai/ha, 0 is no effect, 100 is complete control
Summary of the method: as §1

corn (Zea mays) = experiment: Test A postemergence; settings: Zea mays, post-emergence, 240 h, Postemergence, read-out: Corn plant response rating (0 to 100 scale); for plant injury at 125 g/ha: 125 g ai/ha, visual rating about 10 d after treatment; for plant injury at 31 g/ha: 31 g ai/ha, 0 is no effect, 100 is complete control
Summary of the method: as §1

[13] = tested on: ryegrass, Italian (Italian ryegrass, Lolium multiflorum); experiment: Test A postemergence; settings: Lolium multiflorum, post-emergence, 240 h, Postemergence, read-out: Ryegrass, Italian plant response rating (0 to 100 scale); for pest or weed control at 125 g/ha: 125 g ai/ha, visual rating about 10 d after treatment; for pest or weed control at 31 g/ha: 31 g ai/ha, 0 is no effect, 100 is complete control
Summary of the method: as §1

[14] = tested on: Galium (catchweed bedstraw, Galium aparine); experiment: Test A postemergence; settings: Galium, post-emergence, 240 h, Postemergence, read-out: Galium plant response rating (0 to 100 scale); for pest or weed control at 125 g/ha: 125 g ai/ha, visual rating about 10 d after treatment; for pest or weed control at 31 g/ha: 31 g ai/ha, 0 is no effect, 100 is complete control
Summary of the method: as §1

SMILES | pest or weed control at 31 g/ha [1] [%] | pest or weed control at 125 g/ha [1] [%] | pest or weed control at 31 g/ha [2] [%] | pest or weed control at 125 g/ha [2] [%] | pest or weed control at 31 g/ha [3] [%] | pest or weed control at 125 g/ha [3] [%] | pest or weed control at 31 g/ha (Kochia (Kochia scoparia) [4]) [%] | pest or weed control at 125 g/ha (Kochia (Kochia scoparia) [4]) [%] | pest or weed control at 31 g/ha [5] [%] | pest or weed control at 125 g/ha [5] [%] | pest or weed control at 125 g/ha [6] [%] | pest or weed control at 31 g/ha [6] [%] | pest or weed control at 125 g/ha [7] [%] | pest or weed control at 31 g/ha [7] [%] | pest or weed control at 125 g/ha [8] [%] | pest or weed control at 31 g/ha [8] [%] | pest or weed control at 125 g/ha [9] [%] | pest or weed control at 31 g/ha [9] [%] | pest or weed control at 125 g/ha (Kochia (Kochia scoparia) [10]) [%] | pest or weed control at 31 g/ha (Kochia (Kochia scoparia) [10]) [%] | further results
CN1C[C@H](c2csc3c2CCC(F)(F)C3)[C@@H](C(=O)Nc2ccc(F)c(F)c2F)C1=O (racemic) [Compound 1368] | 0 | 0 | 0 | 100 | 0 | 0 | 0 | 0 | 0 | 0 | 0 | 0 | 50 | 20 | 0 | 0 | 30 | 0 | 20 | 0 | pest or weed control at 125 g/ha [11]: 40%; pest or weed control at 31 g/ha [11]: 0%; plant injury at 125 g/ha [12]: 0%; plant injury at 31 g/ha [12]: 0%; plant injury at 125 g/ha (corn (Zea mays)): 0%; plant injury at 31 g/ha (corn (Zea mays)): 0%; pest or weed control at 125 g/ha [13]: 40%; pest or weed control at 31 g/ha [13]: 20%; pest or weed control at 125 g/ha [14]: 30%; pest or weed control at 31 g/ha [14]: 0%
CN1C[C@H](c2csc3c2CCC(F)(F)C3)[C@@H](C(=O)Nc2cccc(F)c2F)C1=O (racemic) [Compound 1369] | 50 | 70 | 0 | 100 | 0 | 0 | 0 | 0 | 0 | 0 | 20 | 0 | 60 | 20 | 20 | 20 | 20 | 0 | 20 | 0 | pest or weed control at 125 g/ha [11]: 50%; pest or weed control at 31 g/ha [11]: 20%; plant injury at 125 g/ha [12]: 0%; plant injury at 31 g/ha [12]: 0%; plant injury at 125 g/ha (corn (Zea mays)): 0%; plant injury at 31 g/ha (corn (Zea mays)): 0%; pest or weed control at 125 g/ha [13]: 30%; pest or weed control at 31 g/ha [13]: 0%; pest or weed control at 125 g/ha [14]: 30%; pest or weed control at 31 g/ha [14]: 0%
